The conditions of data set [1]: cited from earlier work.
Data set [2] is described as follows: Bleeding events (ISTH definition) in NVAF patients receiving apixaban; association by odds ratio. It is filed as in vivo, human. How it is done: The severity of bleeding was evaluated based on the definition provided by the International Society on Thrombosis and Hemostasis. In brief, events leading to a reduction in hemoglobin levels by at least 2 g/dL, fatal bleeding, or events occurring in critical body locations were considered major bleeding events. Events that required hospitalization, medical or surgical intervention, or a change in antithrombotic treatment were considered clinically relevant non-major. Any acute bleeding event not meeting the criteria for major or clinically relevant non-major bleeding was classified as a minor bleeding episode.
In all enrolled patients, allele-specific real-time PCR was used to identify polymorphic variants of ABCB1 (rs1045642 3435C>T, rs2032582 2677G>T/A, rs1128503 1236C>T), CYP3A4*22 (rs35599367), and CYP3A5*3 (rs776746, 6986A>G). Commercial kits (OOO Syntol, Moscow, Russia) were employed on a CFX96 Touch™ Real-Time PCR Detection System (Bio-Rad, Hercules, CA, USA).
The study data were subjected to statistical processing using both parametric and nonparametric methods. Statistical analyses were performed with the standard software package StatSoft Statistica 10.0 (Dell, Round Rock, TX, USA). Quantitative variables were assessed for normality using the Kolmogorov–Smirnov test (for sample sizes > 50), as well as by evaluating skewness and kurtosis. For quantitative variables with a normal distribution, the data were organized into variational series, and arithmetic means (M) with standard deviations (SD) were calculated. Comparisons of means in normally distributed quantitative datasets were performed using Student’s t-test, with obtained values evaluated against critical thresholds. For categorical variables, differences in frequency distributions were assessed using the χ^2 test, and Fisher’s exact test was applied when the number of observations was small. To quantify the effect of genetic markers on complication occurrence, odds ratios (ORs) with 95% confidence intervals (CIs) were calculated. Statistical significance for all analyses was defined at p < 0.05. For genetic analyses, multiple-testing correction was performed using the Benjamini–Hochberg false discovery rate (FDR) procedure.

On to `COc1ccc(-n2nc(C(N)=O)c3c2C(=O)N(c2ccc(N4CCCCC4=O)cc2)CC3)cc1` [apixaban], for which, in data set [1], the “Interindividual variability in exposure” value is on record as about 30% and the “Intraindividual variability in exposure” value was “approximately 20%”. In addition, in data set [2] (both, human, in vivo), the “Bleeding event in the context of surgery” value is recorded as 1 case; the Epistaxis is 31 cases; the Gastrointestinal bleeding came out at 3 cases; the Hematomas and ecchymoses stood at 3 cases. In data set [2] (both, human, in vivo), the Peptic ulcer exacerbation came out at 1 case and the Uterine bleeding came out at 1 case. Also, in data set [2] (both, human, in vivo, 1.95 years), the “OR of bleeding events by sex” value is 1.119.
With `CCC(C)(C)C(=O)O[C@H]1C[C@@H](C)C=C2C=C[C@H](C)[C@H](CC[C@@H]3C[C@@H](O)CC(=O)O3)[C@H]21` [simvastatin], the “Association with incidence of bleeding events” value in data set [2] (simvastatin (n = 8) as co-medication with apixaban) is “did not show an increase in incidence of bleeding events”.

(Values after publication PMC12562637 (Genes, 2025).)
